Laboratory results from US6706663B2, “Herbicidal 3-heterocyclic substituted benzisothiazole and benzisoxazole compounds” (Wyeth, priority 2000, dated 2004).

Assays:
[1] = test system: SAGPY (Sagittaria pygmaea); assay: Flooded paddy, preemergence weed control; format: in vivo, L.; conditions: rated 3-4 weeks after treatment, 0-9 rating scale
Summary of the method: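 Scoring used a 0-9 visual scale relative to control. Before that, seeds or propagules were planted shallowly in silt loam and flooded to 1.5–3 cm, a depth maintained throughout, with greenhouse care during the test.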

ORYSAT (Rice, Tebonnet) [2] = assay: Postemergence herbicidal evaluation; format: in vivo, Oryza sativa, (L.) Tebonnet; conditions: postemergence
Summary of the method: (§1)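 Visual 0–9 injury scores versus control plants, covering stand, vigour, malformation, size, chlorosis and general appearance, taken four to five weeks post-spray and averaged over replicate tests. Plants were sprayed at roughly two weeks old and held on greenhouse benches.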

[3] = test system: IPOHE (Ipomoea hederacea); assay: Preemergence herbicidal evaluation; format: in vivo, (L.) Jacq.; conditions: preemergence, rated 4-5 weeks after treatment
[4] = test system: ABUTH (Abutilon theophrasti); assay: Preemergence herbicidal evaluation; format: in vivo, Medic.; conditions: preemergence, rated 4-5 weeks after treatment
ORYSAT (Rice, Tebonnet) [5] = assay: Flooded paddy, post-transplant rice tolerance; format: in vivo, Oryza sativa, (L.) Tebonnet; conditions: flooded paddy, post-transplant rice, rated 3-4 weeks after treatment, 0-9 rating scale
Summary of the method: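 Scores (0-9) reflect visual injury relative to untreated plants in flooded silt loam. Each pot held two transplanted ten-day-old seedlings under 1.5 to 3 cm standing water in the greenhouse.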

[6] = test system: ABUTH (Abutilon theophrasti); assay: Postemergence herbicidal evaluation; format: in vivo, Medic.; conditions: postemergence
Summary of the method: as §1

[7] = test system: GLXMAW (Soybean, Williams); assay: Postemergence herbicidal evaluation; format: in vivo, Glycine max, (L.) Merr. cv Williams; conditions: postemergence
Summary of the method: as §1

[8] = test system: AMBEL (Ambrosia artemisifolia); assay: Postemergence herbicidal evaluation; format: in vivo, L.; conditions: postemergence
Summary of the method: as §1

[9] = test system: CHEAL (Chenopodium album); assay: Postemergence herbicidal evaluation; format: in vivo, L.; conditions: postemergence
Summary of the method: as §1

[10] = test system: CASOB (Cassia obtusifolia); assay: Postemergence herbicidal evaluation; format: in vivo, L.; conditions: postemergence
Summary of the method: as §1

[11] = test system: ECHCG (Echinochloa crus-galli); assay: Postemergence herbicidal evaluation; format: in vivo, (L.) Beau; conditions: postemergence
Summary of the method: as §1

[12] = test system: AMBEL (Ambrosia artemisifolia); assay: Preemergence herbicidal evaluation; format: in vivo, L.; conditions: preemergence, rated 4-5 weeks after treatment
Summary of the method: (§2)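 Rating 0–9, visual, vs control; 4–5 wk after spraying seeded cups with compound in aq. acetone; conventional greenhouse care.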

[13] = test system: CHEAL (Chenopodium album); assay: Preemergence herbicidal evaluation; format: in vivo, L.; conditions: preemergence, rated 4-5 weeks after treatment
Summary of the method: as §2

[14] = test system: CASOB (Cassia obtusifolia); assay: Preemergence herbicidal evaluation; format: in vivo, L.; conditions: preemergence, rated 4-5 weeks after treatment
Summary of the method: as §2

GALAP (Galium aparine) [15] = assay: Postemergence herbicidal evaluation; format: in vivo; conditions: postemergence
Summary of the method: as §1

ORYSAT (Rice, Tebonnet) [16] = assay: Preemergence herbicidal evaluation; format: in vivo, Oryza sativa, (L.) Tebonnet; conditions: preemergence, rated 4-5 weeks after treatment
GALAP (Galium aparine) [17] = assay: Preemergence herbicidal evaluation; format: in vivo; conditions: preemergence, rated 4-5 weeks after treatment
Summary of the method: as §2

ZEAMX (Corn, Field) = assay: Postemergence herbicidal evaluation; format: in vivo, Zea mays, L.; conditions: postemergence
Summary of the method: as §1

Cn1c(C(F)(F)F)cc(=O)n(-c2ccc3snc(C4OCC(CS(C)(=O)=O)O4)c3c2)c1=O (single isomer, unassigned) [Compound 86, 1-methyl-3-[3-[4-[(methylsulfonyl)methyl]-1,3-dioxolan-2-yl]-1,2-benzisothiazol-5-yl]-6-(trifluoromethyl)uracil]
SAGPY herbicidal rating ([1]; rate 0.0320 kg/ha): 0.0
SAGPY herbicidal rating ([1]; rate 0.1250 kg/ha): 0.0
ORYSAT herbicidal rating (ORYSAT (Rice, Tebonnet) [2]; rate 0.0320 kg/ha): 4.0
ORYSAT herbicidal rating (ORYSAT (Rice, Tebonnet) [2]; rate 0.0620 kg/ha): 5.5
Preemergence herbicidal rating IPOHE ([3]; rate 0.0620 kg/ha): 4.0
Preemergence herbicidal rating IPOHE ([3]; rate 0.1250 kg/ha): 9.0
Preemergence herbicidal rating IPOHE ([3]; rate 0.2500 kg/ha): 9.0
Preemergence herbicidal rating ABUTH ([4]; rate 0.0620 kg/ha): 9.0
Preemergence herbicidal rating ABUTH ([4]; rate 0.1250 kg/ha): 9.0
Preemergence herbicidal rating ABUTH ([4]; rate 0.2500 kg/ha): 9.0
ORYSAT herbicidal rating (transplanted rice tolerance) (ORYSAT (Rice, Tebonnet) [5]; rate 0.0320 kg/ha): 0.0
ORYSAT herbicidal rating (transplanted rice tolerance) (ORYSAT (Rice, Tebonnet) [5]; rate 0.1250 kg/ha): 5.0
ABUTH herbicidal rating ([6]; rate 0.0320 kg/ha): 9.0
ABUTH herbicidal rating ([6]; rate 0.0620 kg/ha): 9.0
GLXMAW herbicidal rating ([7]; rate 0.0320 kg/ha): 9.0
GLXMAW herbicidal rating ([7]; rate 0.0620 kg/ha): 9.0
AMBEL herbicidal rating ([8]; rate 0.0320 kg/ha): 9.0
AMBEL herbicidal rating ([8]; rate 0.0620 kg/ha): 9.0
CHEAL herbicidal rating ([9]; rate 0.0320 kg/ha): 9.0
CHEAL herbicidal rating ([9]; rate 0.0620 kg/ha): 9.0
CASOB herbicidal rating ([10]; rate 0.0320 kg/ha): 7.0
CASOB herbicidal rating ([10]; rate 0.0620 kg/ha): 9.0
ECHCG herbicidal rating ([11]; rate 0.0320 kg/ha): 4.0
ECHCG herbicidal rating ([11]; rate 0.0620 kg/ha): 5.0
Preemergence herbicidal rating AMBEL ([12]; rate 0.0620 kg/ha): 9.0
Preemergence herbicidal rating AMBEL ([12]; rate 0.1250 kg/ha): 9.0
Preemergence herbicidal rating AMBEL ([12]; rate 0.2500 kg/ha): 9.0
Preemergence herbicidal rating CHEAL ([13]; rate 0.0620 kg/ha): 9.0
Preemergence herbicidal rating CHEAL ([13]; rate 0.1250 kg/ha): 9.0
Preemergence herbicidal rating CHEAL ([13]; rate 0.2500 kg/ha): 9.0
Preemergence herbicidal rating CASOB ([14]; rate 0.0620 kg/ha): 4.0
Preemergence herbicidal rating CASOB ([14]; rate 0.1250 kg/ha): 9.0
Preemergence herbicidal rating CASOB ([14]; rate 0.2500 kg/ha): 9.0
GALAP herbicidal rating (GALAP (Galium aparine) [15]; rate 0.0320 kg/ha): 9.0
GALAP herbicidal rating (GALAP (Galium aparine) [15]; rate 0.0620 kg/ha): 9.0
Preemergence herbicidal rating ORYSAT (ORYSAT (Rice, Tebonnet) [16]; rate 0.0620 kg/ha): 5.0
Preemergence herbicidal rating ORYSAT (ORYSAT (Rice, Tebonnet) [16]; rate 0.1250 kg/ha): 7.0
Preemergence herbicidal rating ORYSAT (ORYSAT (Rice, Tebonnet) [16]; rate 0.2500 kg/ha): 9.0
Preemergence herbicidal rating GALAP (GALAP (Galium aparine) [17]; rate 0.0620 kg/ha): 3.0
Preemergence herbicidal rating GALAP (GALAP (Galium aparine) [17]; rate 0.1250 kg/ha): 4.0
Preemergence herbicidal rating GALAP (GALAP (Galium aparine) [17]; rate 0.2500 kg/ha): 9.0
ZEAMX herbicidal rating (ZEAMX (Corn, Field); rate 0.0320 kg/ha): 4.0
ZEAMX herbicidal rating (ZEAMX (Corn, Field); rate 0.0620 kg/ha): 4.0
